Results: US12331094B2 (Bayer Aktiengesellschaft, priority 2018, dated 2025)
Positions of bridges follow the written chain, without caps; N, C: chain ends. Residues, ends and D or L forms follow the SMILES beside them.

Assays:
[1] = molecular target: T1, neutral endopeptidase (NEP) (Homo sapiens, UniProt P08473); test: Sensitivity towards proteolytic degradation by NEP (reporter cell activity after incubation); type: in vitro ADME; details: 4 hours incubation with 0.6 μg/ml NEP at 37° C., then reporter cell activity
T1 construct: purchased R&D Systems 1182-ZNC
T1 sequence (P08473 52-750 limits assumed): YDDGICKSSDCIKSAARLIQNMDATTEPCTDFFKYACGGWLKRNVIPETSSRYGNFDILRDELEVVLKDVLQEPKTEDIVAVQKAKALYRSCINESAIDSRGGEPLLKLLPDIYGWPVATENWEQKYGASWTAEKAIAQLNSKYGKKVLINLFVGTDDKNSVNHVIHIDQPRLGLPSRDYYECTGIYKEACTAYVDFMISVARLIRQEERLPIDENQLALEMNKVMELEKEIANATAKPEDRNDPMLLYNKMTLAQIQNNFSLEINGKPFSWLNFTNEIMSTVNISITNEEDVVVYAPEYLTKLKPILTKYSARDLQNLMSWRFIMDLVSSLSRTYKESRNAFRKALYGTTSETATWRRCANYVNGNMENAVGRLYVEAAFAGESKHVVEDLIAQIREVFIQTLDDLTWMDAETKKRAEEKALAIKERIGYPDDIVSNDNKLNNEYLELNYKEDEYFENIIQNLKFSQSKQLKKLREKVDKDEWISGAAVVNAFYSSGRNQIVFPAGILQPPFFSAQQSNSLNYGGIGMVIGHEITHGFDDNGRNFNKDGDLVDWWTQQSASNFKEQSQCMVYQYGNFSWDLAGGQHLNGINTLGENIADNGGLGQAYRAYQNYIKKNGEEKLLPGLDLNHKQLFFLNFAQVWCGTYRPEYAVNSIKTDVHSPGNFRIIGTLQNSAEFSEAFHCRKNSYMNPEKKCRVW

[2] = molecular target: T2, insulin degrading enzyme (IDE) (Rattus norvegicus, UniProt P35559); test: Sensitivity towards proteolytic degradation by IDE (reporter cell activity after incubation); details: 4 hours incubation with 0.6 μg/ml IDE at 37° C., then reporter cell activity
T2 sequence (P35559 1-1019): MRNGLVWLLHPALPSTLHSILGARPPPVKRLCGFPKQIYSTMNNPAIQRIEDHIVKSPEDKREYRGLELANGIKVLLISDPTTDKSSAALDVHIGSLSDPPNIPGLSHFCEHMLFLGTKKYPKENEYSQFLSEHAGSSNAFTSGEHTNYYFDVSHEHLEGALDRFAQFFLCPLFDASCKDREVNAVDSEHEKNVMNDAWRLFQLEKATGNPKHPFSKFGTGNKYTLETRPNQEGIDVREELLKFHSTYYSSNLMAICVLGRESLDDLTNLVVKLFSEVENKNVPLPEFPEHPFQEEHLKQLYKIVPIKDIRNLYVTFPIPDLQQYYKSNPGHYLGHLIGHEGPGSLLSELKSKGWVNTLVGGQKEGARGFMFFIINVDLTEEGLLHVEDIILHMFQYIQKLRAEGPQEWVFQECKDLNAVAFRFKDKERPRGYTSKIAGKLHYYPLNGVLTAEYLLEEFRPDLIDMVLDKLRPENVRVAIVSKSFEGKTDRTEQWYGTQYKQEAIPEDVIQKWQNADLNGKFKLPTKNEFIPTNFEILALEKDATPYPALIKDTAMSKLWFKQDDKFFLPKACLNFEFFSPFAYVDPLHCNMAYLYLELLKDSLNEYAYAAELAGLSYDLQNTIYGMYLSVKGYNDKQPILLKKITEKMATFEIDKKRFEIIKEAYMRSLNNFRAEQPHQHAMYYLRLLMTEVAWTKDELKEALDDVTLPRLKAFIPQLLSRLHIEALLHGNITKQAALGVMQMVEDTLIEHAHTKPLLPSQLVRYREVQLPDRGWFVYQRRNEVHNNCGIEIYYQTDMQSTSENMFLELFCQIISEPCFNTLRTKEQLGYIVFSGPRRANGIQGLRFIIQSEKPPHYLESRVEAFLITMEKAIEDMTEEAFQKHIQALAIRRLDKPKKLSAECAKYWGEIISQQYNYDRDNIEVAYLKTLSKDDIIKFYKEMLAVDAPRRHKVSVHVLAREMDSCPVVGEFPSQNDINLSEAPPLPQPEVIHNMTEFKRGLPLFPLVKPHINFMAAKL

[3] = test system: PE-contracted aortic rings; test: Vasorelaxation of isolated phenylephrine-contracted rat aortic rings
Procedure: All experiments were conducted in accordance with institutional guidelines and approved by the local committee on animal experiments. Male Sprague-Dawley rats (weighing 250-300 g) were anesthetized with pentobarbital sodium (40 mg/kg i.p.), killed by decapitation, and exsanguinated. The thoracic aorta was excised and placed in ice-cold Krebs buffer of the following composition: 130 mM NaCl, 14.9 mM NaHCO3, 5.5 mM dextrose, 4.7 mM KCl, 1.18 mM KH2PO4, 1.17 mM MgSO47H2O, and 1.6 mM CaCl22H2O. The vessel was pinned in a Sylgard Petri dish filled with chilled Krebs' solution, cleaned of fat and connective tissue, and cut into ring segments of approximately 3 to 4 mm in length. […] Changes in isometric force were recorded using a PowerLab data acquisition system (software Lab Chart 7.0)
After the equilibration period, aortic rings were challenged with 80 mM KCl to check tissue viability. Next, the endothelial integrity of the preparations was determined by verifying the responsiveness to acetylcholine (ACh, 1 μM) in vessels pre-contracted with Phenylephrine (PE, 1 μM). After wash-out and a period of equilibration, Phenylephrine (PE, 1 μM) was used to induce contraction, thereafter natriuretic peptides and natriuretic peptide engrafted IgGs were evaluated for vasorelaxation.

[4] = test system: spontaneously hypertensive rats; test: Radiotelemetric blood pressure in conscious spontaneously hypertensive rats; type: in vivo, rat; details: 500 μg dose intraperitoneally
Procedure: Blood pressure and heart rate were monitored in freely moving conscious animals by radiotelemetry (Data Sciences International). Female spontaneously hypertensive rats (SHR/N Crl BR, Charles River) with a body weight of 210-300 g were used for these studies. All animals were housed in individual cages at 22-24° C. ambient temperature and maintained on a 12-hour light/dark cycle with free access to standard laboratory rat chow and water ad libitum. Telemeter (HD-10, DSI) implantation was performed a minimum of 14 days before animals were used for blood pressure measurements. Surgery was performed under aseptic conditions. After shaving the abdominal wall, a midline abdominal incision was made, and the fluid-filled sensor catheter was inserted upstream into the exposed descending aorta between the iliac bifurcation and the renal arteries. According to the DSI guidelines the tip of the telemetric catheter was located caudal to the renal arteries and secured by tissue adhesive. The transmitter body was affixed to the inner peritoneal wall before closure of the abdomen. […] Data are expressed as % of basal values±SEM of at least 4 animals per group. The basal value for each animal was calculated as the average of the values measured in two hours prior to substance application (7:00-9:00 AM). Data are then expressed as averages every half hour, starting 15 minutes post application. […]

Row | proteolytic degradation by NEP [1] | proteolytic degradation by IDE [2] | Compound | vasodilation in PE-contracted aortic rings [3] | Potency (log EC50 values) ([3]; vasodilation, endothelium-intact rat aortic rings contracted by phenylephrine (1 μM)) | drop in mean arterial blood pressure (MAP) [4] | duration of effect [4]
1 | high sensitivity | high sensitivity | CC[C@H](C)[C@@H]1NC(=O)[C@H](CCCNC(=N)N)NC(=O)[C@H](CC(=O)O)NC(=O)[C@H]([C@@H](C)CC)NC(=O)[C@H](CCCCN)NC(=O)[C@H](CCC(N)=O)NC(=O)CNC(=O)[C@H](Cc2ccccc2)NC(=O)[C@@H](NC(=O)[C@H](CO)NC(=O)[C@H](CO)NC(=O)[C@H](CO)NC(=O)[C@H](Cc2c[nH]cn2)NC(=O)[C@H](C)NC(=O)[C@H](CCSC)NC(=O)[C@H](CCCCN)NC(=O)[C@H](CO)NC(=O)[C@@H](N)CC(N)=O)CSSC[C@@H](C(=O)N[C@@H](CC(=O)O)C(=O)NCC(=O)N[C@@H](CC(C)C)C(=O)N[C@@H](CCCNC(=N)N)C(=O)N[C@@H](CC(C)C)C(=O)N[C@@H](Cc2ccccc2)C(=O)O)NC(=O)CNC(=O)[C@H](CC(C)C)NC(=O)[C@H](CCCNC(=N)N)NC(=O)[C@H](CO)NC(=O)[C@H](C(C)C)NC(=O)[C@H](C)NC(=O)CNC1=O [BNP, Brain Natriuretic Peptide, reference compound] (H-NSKMAHSSSCFGQKIDRIGAVSRLGCDGLRLF-OH; disulfide 10-26; N-terminus and C-terminus assumed) | – | – | – | –
2 | – | – | ANP peptide: Rat ANP peptide (ADH-GM-10057T, Santai Labs) used as a reference (SLRRSSCFGGRIDRIGAQSGLGCNSFRY) [reference compound] | dose-dependent vasodilation | −7.4 | approximately 25% | 6 to 8 h
